Columns and labels:
Type in all cases: cell-based
[1] = tested on: HeLa cervical adenocarcinoma; experiment: Cell proliferation assay (14C-thymidine incorporation), HeLa; settings: Homo sapiens, read-out: Inhibition of cell proliferation IC50
Experimental: (§1) The ability of a test compound to inhibit the proliferation of cell growth was determined by measuring incorporation of ^14C-labelled thymidine into newly synthesized DNA within the cells. This method was used on cell lines derived from carcinomas originating from several tissues such as HeLa cervical adenocarcinoma (American Type Culture Collection (ATCC), Virginia, Cat. #CCL-2), A375 malignant melanoma (ATCC CRL-1619), SK-OV-3 ovarian adenocarcinoma (ATCC HTB-77) HCT-116 colon carcinoma (CCL-247) and PC-3 prostate adenocarcinoma (ATCC CRL-1435). The method was also used on primary cells such as HUVEC endothelial cells (ATCC CRL-1730). In this way the effect of a compound on cell growth of cells with many different phenotypes can be determined. Cells were trypsinized and counted and 3000-8000 cells were added to each well of a 96-well CytoStar tissue culture treated scintillating microplate (Amersham #RPNQ0160) in complete medium in a volume of 100 μl. Cells were incubated for 24 hours in complete medium at 37° C. in an atmosphere containing 5% CO2.
(§2) Next, 1 μl of test compound in 100% DMSO was added to the wells of the plate. DMSO only was added to control wells. Cells were incubated for 24 more hours in complete medium at 37° C. in an atmosphere containing 5% CO2. Methyl ^14C-thymidine 56 mCi/mmol (NEN #NEC568 or Amersham #CFA532) was diluted in complete medium and 0.2 μCi/well was added to each well of the CytoStar plate in a volume of 20 μl. The plate was incubated for 24 hours at 37° C. plus 5% CO2 in drug plus ^14C-thymidine. The contents of the plate were discarded into a ^14C radioactive waste container by inverting the plate and the plate was washed twice with 200 μl PBS. 200 μl of PBS is then added to each well. The top of the plate was sealed with a transparent plate sealer and a white plate backing sealer (Packard #6005199) was applied to the bottom of the plate. The degree of Methyl ^14C-thymidine incorporation was quantified on a Packard Top Count.

HCT-116 colon carcinoma = experiment: Cell proliferation assay (14C-thymidine incorporation), HCT-116; settings: Homo sapiens, read-out: Inhibition of cell proliferation IC50
Experimental: as §1, §2

[2] = tested on: SK-OV-3 ovarian adenocarcinoma; experiment: Cell proliferation assay (14C-thymidine incorporation), SK-OV-3; settings: Homo sapiens, read-out: Inhibition of cell proliferation IC50
Experimental: as §1, §2

MDA-MB-231 = experiment: Cell proliferation assay (14C-thymidine incorporation), MDA-MB-231; settings: Homo sapiens, read-out: Inhibition of cell proliferation IC50
Experimental: as §1, §2

[3] = tested on: PC-3 prostate adenocarcinoma; experiment: Cell proliferation assay (14C-thymidine incorporation), PC-3; settings: Homo sapiens, read-out: Inhibition of cell proliferation IC50
Experimental: as §1, §2

rat aortic ring = experiment: Rat aortic ring assay (vascular sprouting); settings: 192 h; rat aortic ring in fibrin gel, analyzed on day 8; read-out: Inhibition of Vascular Sprouting (IC50μM)
Experimental: The rat aortic ring assay is a rapid in vitro assay that measures new capillary growth in an environment that closely approximates the in vivo conditions of the extracellular matrix. The assay was performed as described (Nicosia, R F and Ottinetti, A. Growth of new microvessels in serum-free matrix culture of rat aorta. Lab Invest., 63: 115-122, 1990). Thoracic aortas were removed from 1 to 2-month old male Sprague-Dawley rats and transferred to a culture dish containing serum-free MCDB 131 medium (Clonetics). Extraneous tissue was removed and the aorta was sectioned into rings approximately 1 mm long and rinsed 8-10 times in serum-free medium. A solution of sterile 1.5% agarose (Type VI-A, Sigma, St. Louis, Mo.) was added to the wells of a 6-well plate. The wells were filled with clotting fibrinogen solution and an aortic ring was transferred into the well positioned with the lumen oriented horizontally in the center of the fibrin gel solution. The fibrinogen solution was prepared in MCDB 131 medium with bovine fibrinogen at 3 mg/ml. Clotting was initiated by adding 20 μl of a 50 NIH units/ml bovine thrombin solution and the fibrin gel generally formed within 30 seconds. The fibrinolytic inhibitor amino-n-caproic acid was added to the culture medium at 300 µg/ml (microgram per milliliter) for the first four days of the assay and at 50 μg/ml from day 5 to day 8. Once the fibrin gel solution solidified, 5 ml of serum-free MCDB 131 media containing 100 μg/ml penicillin, 100 μg/ml streptomycin and 0.25 μg/ml amphotericin B was added to each well. Explants were incubated at 37° C. with 5% CO2 for 8 days. Medium was replaced every 2-3 days and the assay was analyzed on day 8. Inhibition of vascular sprouting was measured by adding test compounds diluted in DMSO.

Structure (SMILES)	IC50 [1] [µM]	IC50 (HCT-116 colon carcinoma) [µM]	IC50 [2] [µM]	IC50 (MDA-MB-231) [µM]	IC50 [3] [µM]	IC50 (rat aortic ring) [µM]
OCCCCNc1cncc(-c2cncc(Nc3cccc(Cl)c3)n2)c1 [Cmd 32, 4-[[5-[6-[(3-chlorophenyl)amino]pyrazinyl]-3-pyridinyl]amino]-1-butanol]	86.4	23.5	14.6	27.6	67.6	0.83
OCCCNc1cncc(-c2cncc(Nc3cccc(Cl)c3)n2)c1 [Cmd 4, 3-[[5-[6-[(3-chlorophenyl)amino]pyrazinyl]-3-pyridinyl]amino]-1-propanol]	4.56	8.35	3	3.26	11.3	0.099
CN(C)CCCNc1cncc(-c2cncc(Nc3cccc(Cl)c3)n2)c1 [Cmd 35, N^1-[5-[6-[(3-chlorophenyl)amino]pyrazinyl]-3-pyridinyl]-N^3,N^3-dimethyl-1,3-propanediamine]	> 100	> 100	19.3	98.3	> 100	> 1

Reference: patent publication US6710048B2, “Pyrazine derivatives as modulators of tyrosine kinases” (Ortho-McNeil Pharmaceutical, Inc., priority 2000, dated 2004)
